Laboratory results taken from patent US7084161B2, “Method for treating inflammatory diseases or conditions” (SmithKlineBeecham Corporation, priority 2000, dated 2006).

Test system: LPS-induced INOS activity in J774 cells
Assay: LPS-induced iNOS activity in J774 cells (DAF-2 fluorescence)
Type: cell-based, mouse
Conditions: pre-treatment 6 hours prior to and 24 hours subsequent to LPS (typically 1 ug/ml), at sub-nanomolar—nanomolar concentrations
Procedure: In this assay system, lipopolysaccharide (LPS) was used to induce the expression of INOS in the mouse macrophage cell line, J774. […] This reduction in INOS activity correlated with a reduction in LPS-induced INOS mRNA expression.
Specifically, LPS-induced INOS activity was measured using the following assay conditions. J774 cells were seeded at a density of […] per well, in a black, clear-bottomed, 96 well plate, 24 hours prior to use. The cell culture and the drug dilutions were carried out in complete media, which consisted of DMEM (Dulbecco's modification of Eagle's medium) containing foetal calf serum (10%), glutamine (2 mM), penicillin (100 u/ml) and streptomycin (100 μg/ml). The J774 cells were pre-treated with the PPAR delta activators A and B, or vehicle, for 6 hours prior to, and for 24 hours subsequent to the addition of LPS (typically, a concentration of 1 ug/ml of LPS was used). Twenty-four hours after the addition of LPS, INOS activity was measured by the following method. […] After incubation at 37° C. for 3 hours, fluorescence from each well was measured at an excitation wavelength of 485 nm, and an emission wavelength of 530 nm. The ability of LPS to induce INOS activity, in the presence and absence of PPAR delta activators, was then calculated. […]

| SMILES | inhibition of LPS-induced INOS activity |
| --- | --- |
| Cc1cc(SCc2sc(-c3ccc(C(F)(F)F)cc3)nc2C)ccc1OCC(=O)O [Compound A, 2-{2-methyl-4-[({4-methyl-2-[4-(trifluoromethyl)phenyl]-1,3-thiazol-5-yl}methyl)sulfanyl]phenoxy}acetic Acid] | marked inhibition |
| Cc1cc(SCc2sc(-c3ccc(C(F)(F)F)c(F)c3)nc2C)ccc1OCC(=O)O [Compound B, 2-{2-methyl-4-[({4-methyl-2-[3-fluoro-4-(trifluoromethyl)phenyl]-1,3-thiazol-5-yl}methyl)sulfanyl]phenoxy}acetic Acid] | marked inhibition |
